Results on one compound are retold here after patent US20040072801A1, “Sterols bearing pendant allosteric effectors of hemoglobin, and uses thereof” (priority 2002, published 2004).

Entries after “also recorded” stand apart in the source; their conditions may differ.

Series [1] has as its system C57B1/6 mice. As to the kind of experiment: Tolerability and pharmacodynamics of SV184 and SV192 after iv injection. The series is classed as in vivo, mouse. The procedure:
The tolerability and pharmacodynamics of the compounds SV184 and SV192 were tested in a small number of C57B1/6 mice. Mice receiving the whole volume of 200 μL of (30 mM) effector solution died immediately after injection or during injection (injection time 10-20 min). Eight mice receiving less than 200 μL of the compound solution survived. These mice were fast breathing and shaking, but recovered after 4 hours. […] Therefore, new derivatives were synthesized in our labs.

Series [2] deals with C57B1/6 mice. The series is described as above. In kind it is in vivo, mouse. The note with it: for Number of mice died: 2 mice injected.
The target of series [3] is Free Hemoglobin (Homo sapiens, UniProt P68871). In words: P50 of free hemoglobin with effector (Table 1). In kind it is biochemical. The note with it: ratio 1:1 (2.5 mM:2.5 mM), pH 7.1-7.2, 37° C. From the text:
The sample chamger contained:

The test system of series [4] is human RBCs in whole blood. In words: P50 of RBCs after in vitro incubation of human whole blood with effector (Hemox Analyzer). The note with it: for P50 Increase % / P50 mm HG EFF:WB: EFF:WB 1:1.5; for lysis of red blood cells (hemolysis): tested on whole blood.
Procedure: P50 of effector incubated with RBC were recorded using a Hemox Analyzer and a HAS software from TCS Scientific (New Hope, Pa.). The reading solution consisted of an aliquot of RBCs to meet instrument parameters and 20 mM Hemox buffer (Osm=310±10 mOsM, pH=7.1-7.2) at 37° C.
Incubation: Whole blood (75-300 μL) was incubated with 200 μL of effector at 37° C. for 5-10 min.
Washes: After incubation of whole blood with/without effector, blood cells were washed four times with Saline buffer or HBS (BSA) by centrifugal pelleting to remove exogenous effector and to evaluate hemolysis. After final centrifugation, pellet was not resuspended.
Blood Oxygen Dissociation Reading: Blood Oxygen Dissociation of samples were determined using a Hemox Analizer Model B (TCS Medical Products Company, New Hope, Pa.).
The P50s were calculated from the Dissociation Curves compared to same day control P50.

Sequence of Free Hemoglobin (P69905 2-142 partner limits assumed): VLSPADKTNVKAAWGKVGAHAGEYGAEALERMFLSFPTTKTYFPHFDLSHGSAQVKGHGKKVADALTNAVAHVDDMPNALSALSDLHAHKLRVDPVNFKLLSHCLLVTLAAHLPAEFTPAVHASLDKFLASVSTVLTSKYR
Sequence of Free Hemoglobin (P68871 2-147 limits assumed): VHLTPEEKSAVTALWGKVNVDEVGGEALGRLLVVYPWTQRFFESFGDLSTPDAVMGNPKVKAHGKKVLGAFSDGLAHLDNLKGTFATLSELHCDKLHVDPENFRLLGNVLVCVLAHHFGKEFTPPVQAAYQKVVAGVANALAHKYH

Consider `CC(C)CCCC(C)C1CCC2C3CC=C4CC(OC(=O)OP(=O)(O)OC5C(OP(=O)(O)O)C(OP(=O)(O)O)C(OP(=O)(O)O)C(OP(=O)(O)O)C5OP(=O)(O)O)CCC4(C)C3CCC12C.CN(C)C1CCCCC1.CN(C)C1CCCCC1.CN(C)C1CCCCC1.CN(C)C1CCCCC1.CN(C)C1CCCCC1.CN(C)C1CCCCC1.CN(C)C1CCCCC1.CN(C)C1CCCCC1` (stereo not drawn) [SV192, Inositol hexaphosphate-cholesteroloxycarbonyl, octa N,N-dimethyl-cyclohexylammonium salt], for which the “Number of mice died” value in series [1] (iv 200 μL of 30 mM, 1 mouse injected) is recorded as 1; in series [2] (iv 135 μL of 30 mM) it was 0; in series [2] (iv 165 μL of 30 mM) it was 2. The “toxicity upon iv injection in mice” value in series [1] (iv, 30 mM effector solution) is reported as “high level of toxicity”. In series [1] (less than 200 μL iv, blood taken 4 and 24 hours after injection), the “shift of P50 in blood of surviving mice” value is reported as “did not show a significant shift of P50”. For the same compound, in series [2] (iv 135 μL of 30 nM), the “Shift of P50 %” value is recorded as <3%. Further, the “P50 mm Hg EFF:WB (fHb)” value in series [3] is 32.5 mm Hg. In addition, in series [4] (human WB, EFF:WB 1:0.375, 224 mOsM, 30 mM), the “lysis of RBC on incubation” value was “Lyses; also recorded: lysis”. The “P50 Increase %” value in series [4] (human WB, 224 mOsM, 30 mM) amounted to 26%; in series [4] (human WB, 310 mOsM, 30 mM), 25%. Besides, the “P50 mm HG EFF:WB” value in series [4] (human WB, 224 mOsM, 30 mM) came out at 29.5 mm Hg; in series [4] (human WB, 310 mOsM, 30 mM), 30 mm Hg. Also, in series [4] (physiological or nearly physiological osmotic pressure, in vitro whole blood), the “lysis of the RBC” value is reported as “no lysis”. In addition, the entries for the “lysis of red blood cells (hemolysis)” value in series [4] (listed as 2b) and in series [4] (listed as IHP-cholesterol derivative with N,N-dimethyl-cyclohexylammonium countercations) were “did not trigger hemolysis” and “without any detectable cell lysis”, respectively.
